This note sets out measurements from publication PMC13607727 (International Journal of Molecular Sciences, 2026).

One experiment deals with 2019-nCoV S protein (Severe acute respiratory syndrome coronavirus 2, UniProt P0DTC2). The experiment is classed as binding, SARS-CoV-2. The settings on record: for ΔTm: 100 µM.
A further experiment has as its target 2019-nCoV S-RBD (Severe acute respiratory syndrome coronavirus 2, UniProt P0DTC2). Format: binding, SARS-CoV-2.
A further experiment concerns HEK293T cells. Format: cell-based.
In experiment [1] the target is 2019-nCoV S protein–hACE2 complex (Severe acute respiratory syndrome coronavirus 2, UniProt P0DTC2). The experiment is classed as cell-based, SARS-CoV-2; human.
For another experiment, the system named is 2019-nCoV pseudovirus. Format: cell-based, SARS-CoV-2.
Experiment [2] relates to Delta (B.1.617.2) pseudovirus. The experiment is classed as cell-based, SARS-CoV-2.
Another experiment has as its system Omicron BA.5 pseudovirus. Format: cell-based, SARS-CoV-2.
[3] abbreviates: read-out: KD (equilibrium dissociation constant).
Setting [4] is: read-out: IC50 (concentration inducing 50% cell death).

“And” between values parts separate entries of the source, which are not always exact repeats. Equal values may be shown once. Where a name gives a salt, the structure may show the parent alone. Read-outs that look alike come from different tables or passages of the source.

As a reminder, the ΔTm is the shift of the melting midpoint relative to a reference. In general, Kd refers to a measure of binding affinity in units of concentration. In general, IC50 refers to the concentration needed to halve the response being measured. A high value points to weaker potency. With `CC(OC(=O)OC1CCCCC1)OC(=O)C1=C(CSc2nnnn2CC[NH+](C)C)CSC2C(NC(=O)Cc3csc(N)n3)C(=O)N12` (centres unmarked) [CTM-HCl, cefotiam hexetil hydrochloride], at 2019-nCoV S protein, the CETSA classification result is given as “CETSA-positive”, the “Fold-change ratio of soluble S-protein band intensity relative to controls” value is 1.64 ± 0.21 and the ΔTm entry is “+2.2 °C”. Besides, the Kd at 2019-nCoV S-RBD (read-out: KD) is 142 µM. Besides, the Kd on 2019-nCoV S-RBD (setting [3]) turned out to be 142 µM. Further, the Kd at 2019-nCoV S-RBD (read-out: Mean KD ± SD) was found to be 142 µM. Moreover, the Cell viability result in the experiment with HEK293T cells is “above 90%”. Further, the CC50 in the experiment on HEK293T cells (read-out: Cytotoxicity CC50) is > 100 µM. In experiment [1], the “Reduction in S-protein pull-downs” value is recorded as 32.5% and the “Reduction in hACE2 pull-downs” value was found to be 7.9%. In the experiment with 2019-nCoV pseudovirus, the “Effect on pseudovirus entry” value was “reduced entry of the ancestral and Omicron strains in a concentration-dependent manner”; 94.6 µM corresponded to half-maximal inhibition (IC50); the “Selectivity Index (SI)” value is > 1.06. In addition, in experiment [2], the “Effect on pseudovirus entry” value was “marginal and detectable only at 50 μM”; the IC50 was > 100 µM. Moreover, in the experiment on Omicron BA.5 pseudovirus, the “Effect on pseudovirus entry” value is “reduced entry of the ancestral and Omicron strains in a concentration-dependent manner”; the IC50 is > 100 µM.
As to `CCCCCCCCC=CCCCCCCCC(=O)OCC(C[N+](C)(C)C)OC(=O)CCCCCCCC=CCCCCCCCC` (centres unmarked) [DOTAP, DOTAP chloride], on 2019-nCoV S protein, the CETSA classification entry is given as “CETSA-positive”, the “Fold-change ratio of soluble S-protein band intensity relative to controls” value turned out to be 3.49 ± 0.50 and the shift in melting temperature (ΔTm) result was “+9.1 °C”. For the same molecule, the Kd at 2019-nCoV S-RBD (read-out: KD) worked out at 79 µM. Besides, on 2019-nCoV S-RBD (setting [3]), the Kd came out at 49.9 µM. For the same molecule, the Kd at 2019-nCoV S-RBD (read-out: Mean KD ± SD) was 64.5 ± 20.6 µM. Also, the Cell viability result in the experiment on HEK293T cells is given as “above 90%”. In experiment [1], the “Reduction in S-protein pull-downs” value was 51.4% and the “Reduction in hACE2 pull-downs” value was 46.8%. Further, in the experiment with 2019-nCoV pseudovirus, the “Effect on pseudovirus entry” value was “at 25 μM reduced the entry of 2019-nCoV and Omicron pseudoviruses”; the IC50 is > 100 µM. In addition, in experiment [2], the “Effect on pseudovirus entry” value is on record as “limited efficacy against the Delta variant” and the IC50 was > 100 µM. Also, in the experiment with Omicron BA.5 pseudovirus, the “Effect on pseudovirus entry” value was “at 25 μM reduced the entry of 2019-nCoV and Omicron pseudoviruses”; the IC50 was > 100 µM.
Turning to `CC(=O)NC1C(OC2c3ccc(c(Cl)c3)Oc3cc4cc(c3OC3OC(CO)C(O)C(O)C3NC(=O)CCCCCCC(C)C)Oc3ccc(cc3Cl)CC3NC(=O)C(N)c5ccc(O)c(c5)Oc5cc(O)cc(c5)C(NC3=O)C(=O)NC4C(=O)NC3C(=O)NC2C(=O)NC(C(=O)O)c2cc(O)cc(OC4OC(CO)C(O)C(O)C4O)c2-c2cc3ccc2O)OC(CO)C(O)C1O` (centres unmarked) [teicoplanin], on 2019-nCoV S protein, the CETSA classification entry is on record as “did not meet the positive threshold” and the ΔTm was −4.0 °C. The Cell viability entry with HEK293T cells is “above 90%”. Moreover, the CC50 with HEK293T cells (read-out: Cytotoxicity CC50) is > 100 µM. Further, in experiment [1], the “Reduction in S-protein pull-downs” value is reported as 52.2% and the “Reduction in hACE2 pull-downs” value amounted to 54.4%. Moreover, in the experiment on 2019-nCoV pseudovirus, the “Effect on pseudovirus entry” value was “effective against the ancestral strain at 25–50 μM” and the IC50 was > 100 µM. In experiment [2], the “Effect on pseudovirus entry” value is given as “observed only at 100 μM” and the IC50 is > 100 µM. In the experiment with Omicron BA.5 pseudovirus, the “Effect on pseudovirus entry” value is “reduced Omicron pseudovirus entry in a concentration-dependent manner” and the IC50 is > 100 µM.
As for Bacitracin zinc [BZ], at 2019-nCoV S protein, the Tm was 43.4 °C and the ΔTm was −6.1 °C. In addition, the Kd on 2019-nCoV S-RBD (setting [3]) worked out at 11.4 µM. The CC50 in the experiment with HEK293T cells (setting [4]) was found to be 79.9 µM. Further, in experiment [1], the “Reduction in S-protein pull-downs” value was determined as 61.8% and the “Reduction in hACE2 pull-downs” value is listed as 95.7%.
Consider DDAVP, for which, at 2019-nCoV S protein, the Tm was determined as 48.9 °C and the ΔTm was −0.7 °C.
Regarding angiotensin II [Ang II], at 2019-nCoV S protein, the Tm was 55.4 °C and the ΔTm entry is “+5.8 °C”. The Kd at 2019-nCoV S-RBD (setting [3]) was found to be 30.7 µM. The Cell viability result with HEK293T cells is listed as “above 90%”. For the same molecule, the “Effect on S-RBD/hACE2 co-immunoprecipitation” value in experiment [1] is “did not appreciably reduce”.
Consider melittin, for which, on 2019-nCoV S protein, the CETSA classification result is listed as “did not meet the positive threshold”, the “Fold-change ratio of soluble S-protein band intensity relative to controls” value is 2.70 ± 0.52 and the ΔTm result is “+0.7 °C”. Moreover, on 2019-nCoV S-RBD (read-out: KD), the Kd was 57 µM and 34.1 µM and 56.8 µM. Further, the dissociation constant Kd at 2019-nCoV S-RBD (setting [3]) amounted to 35 µM. Moreover, the Kd on 2019-nCoV S-RBD (read-out: Mean KD ± SD) is 49.6 ± 12.2 µM. The CC50 in the experiment with HEK293T cells (read-out: Cytotoxicity CC50) is 2.3 µM. Also, the CC50 in the experiment with HEK293T cells (setting [4]) stood at 2.3 µM. Moreover, in experiment [1], the “Reduction in S-protein pull-downs” value is reported as 85.1% and the “Reduction in hACE2 pull-downs” value amounted to 65.8%. In the experiment on 2019-nCoV pseudovirus, the “Effect on pseudovirus entry” value is given as “reduced entry of all three pseudoviruses at 1.25 μM”, the IC50 amounted to 1.83 µM, the “Selectivity Index (SI)” value is on record as 1.26 and the “Therapeutic index (SI)” value was ~ 1.2. Further, in experiment [2], the “Effect on pseudovirus entry” value is “reduced entry of all three pseudoviruses at 1.25 μM”, the IC50 was determined as 1.99 µM and the “Selectivity Index (SI)” value was 1.16. Moreover, in the experiment with Omicron BA.5 pseudovirus, the “Effect on pseudovirus entry” value was “reduced entry of all three pseudoviruses at 1.25 μM”, the IC50 was > 1.25 µM and the “Selectivity Index (SI)” value was < 1.84.
